Assay results published in ChEMBL document CHEMBL3885861, “Open TG-GATES”.

Organism: Rattus norvegicus
Assay: Open TG-GATES - Regimen: Daily Repeat
Format: toxicity, organism-based, Sprague-Dawley
Design: regimen Daily Repeat, gender Male, age 6 weeks
Details: in vivo, po, route gavage; for TBIL / TC / TG / TP / gamma-GTP / ALP / ALT / AST / BUN / CRE / Ca / Cl / DBIL / K / LDH / Na / PL / RALB / IP: tissue Plasma; for APTT / Bas / Eos / Fbg / Hb / Ht / Lym / MCH / MCHC / MCV / PT / Plat / RBC / Ret / WBC / Mono / Neu: tissue Blood; for LIVER: tissue Liver
[1] = 1 mg/kg, […], dose level Low, time 28 day
[2] = 3 mg/kg, 72 h, dose level Middle, time 3 day
[3] = 3 mg/kg, 72 h, tissue Kidney, dose level Middle, time 3 day
[4] = 3 mg/kg, […], dose level Middle, time 14 day
[5] = 3 mg/kg, […], dose level Middle, time 28 day
[6] = 3 mg/kg, […], tissue Kidney, dose level Middle, time 14 day
[7] = 3 mg/kg, […], tissue Kidney, dose level Middle, time 28 day
[8] = 10 mg/kg, 72 h, dose level High, time 3 day
[9] = 10 mg/kg, 72 h, tissue Kidney, dose level High, time 3 day
[10] = 10 mg/kg, […], dose level High, time 14 day
[11] = 10 mg/kg, […], dose level High, time 28 day
[12] = 10 mg/kg, […], tissue Kidney, dose level High, time 14 day
[13] = 10 mg/kg, […], tissue Kidney, dose level High, time 28 day

With `C#C[C@]1(O)CC[C@H]2[C@@H]3CCc4cc(O)ccc4[C@H]3CC[C@@]21C` [ETHINYL ESTRADIOL] the TBIL [1] was 0.1 mg/dL, the TC [1] was 50.6 mg/dL and the TG [1] was 82 mg/dL. It also gave a TP [1] of 6.8 g/dL, a gamma-GTP [1] of 3.2 IU/L and a TERMINAL_BW [2] of 201.7 g. The APTT [2] was 22.6 s, the Bas [2] was 0% and the Eos [2] was 1%. For the same molecule, the Fbg [2] was 302.4 mg/dL, the Hb [2] was 13.7 g/dL and the Ht [2] was 40.3%. It also gave a Lym [2] of 76.4%, an MCH [2] of 20.9 pg and an MCHC [2] of 34.1%. It also gave an MCV [2] of 61.5 fL, a PT [2] of 13.5 s and a Plat [2] of 106.8 x10_4/uL. The RBC [2] was 656.8 x10_4/ul, the Ret [2] was 4.4% and the WBC [2] was 75.4 x10_2/uL. It also gave a KIDNEY_L [3] of 0.9 g, a KIDNEY_R [3] of 1 g and an LIVER [2] of 12.6 g. It also gave an ALP [2] of 2898.2 IU/L, an ALT [2] of 40.8 IU/L and an AST [2] of 66.2 IU/L. The BUN [2] was 9.8 mg/dL, the CRE [2] was 0.2 mg/dL and the Ca [2] was 10.5 mg/dL. It also gave a Cl [2] of 108.2 meq/L, a DBIL [2] of 0.038 mg/dL and a K [2] of 4 meq/L. It also gave an LDH [2] of 77.8 IU/L, a Na [2] of 143.6 meq/L and a PL [2] of 74.8 mg/dL. For the same molecule, the RALB [2] was 2.6 g/dL, the TBIL [2] was 0.07 mg/dL and the TC [2] was 24.8 mg/dL. For the same molecule, the TG [2] was 55.6 mg/dL, the TP [2] was 5.6 g/dL and the TERMINAL_BW [4] was 223.6 g. For the same molecule, the TERMINAL_BW [5] was 227.7 g, the APTT [4] was 19.5 s and the Bas [4] was 0%. For the same molecule, the Eos [4] was 1%, the Fbg [4] was 316.6 mg/dL and the Ht [4] was 37.1%. The Lym [4] was 76.2%, the MCH [4] was 20.2 pg and the MCHC [4] was 36%. The MCV [4] was 56.2 fL, the Mono [4] was 2.2% and the Neu [4] was 20%. It also gave a PT [4] of 13.6 s, a Plat [4] of 149.1 x10_4/uL and an RBC [4] of 659.8 x10_4/ul. The Ret [4] was 2.4%, the WBC [4] was 96.9 x10_2/uL and the APTT [5] was 24.1 s. It also gave a Bas [5] of 0%, a Fbg [5] of 301 mg/dL and a Ht [5] of 37.2%. For the same molecule, the Lym [5] was 77.6%, the MCH [5] was 18.7 pg and the MCHC [5] was 36.1%. The MCV [5] was 51.7 fL, the Mono [5] was 2.2% and the PT [5] was 14 s. For the same molecule, the Plat [5] was 110.2 x10_4/uL, the RBC [5] was 719 x10_4/ul and the Ret [5] was 2%. The WBC [5] was 69.4 x10_2/uL, the KIDNEY_L [6] was 1 g and the KIDNEY_R [6] was 1 g. It also gave a KIDNEY_TOTAL [6] of 2 g, a KIDNEY_L [7] of 1 g and a KIDNEY_R [7] of 1 g. It also gave an LIVER [4] of 15.2 g, an LIVER [5] of 13.8 g and an ALP [4] of 2422.2 IU/L. It also gave an ALT [4] of 39.2 IU/L, an AST [4] of 55.4 IU/L and a BUN [4] of 16.4 mg/dL. For the same molecule, the CRE [4] was 0.3 mg/dL, the Cl [4] was 105.4 meq/L and the DBIL [4] was 0.088 mg/dL. It also gave an IP [4] of 6.2 mg/dL, an LDH [4] of 88.2 IU/L and a Na [4] of 143.8 meq/L. It also gave a PL [4] of 126.8 mg/dL, an RALB [4] of 3 g/dL and a TBIL [4] of 0.2 mg/dL. The TC [4] was 40.6 mg/dL, the TG [4] was 76.4 mg/dL and the TP [4] was 6.8 g/dL. It also gave a gamma-GTP [4] of 4.4 IU/L, an ALP [5] of 1503.2 IU/L and an ALT [5] of 40.6 IU/L. The AST [5] was 50.6 IU/L, the BUN [5] was 14.8 mg/dL and the CRE [5] was 0.2 mg/dL. The Ca [5] was 10.8 mg/dL, the Cl [5] was 105.2 meq/L and the DBIL [5] was 0.062 mg/dL. The IP [5] was 4.9 mg/dL, the K [5] was 3.9 meq/L and the LDH [5] was 51.4 IU/L. It also gave a Na [5] of 143.6 meq/L, a PL [5] of 134 mg/dL and an RALB [5] of 3.1 g/dL. The TBIL [5] was 0.1 mg/dL, the TC [5] was 46.8 mg/dL and the TG [5] was 59.2 mg/dL. The TP [5] was 6.9 g/dL, the gamma-GTP [5] was 9.8 IU/L and the TERMINAL_BW [8] was 202.8 g. It also gave an APTT [8] of 17.7 s, a Bas [8] of 0.2% and an Eos [8] of 1%. For the same molecule, the Fbg [8] was 289.4 mg/dL, the Hb [8] was 13.2 g/dL and the Ht [8] was 38.8%. The Lym [8] was 81.8%, the MCHC [8] was 34.2% and the MCV [8] was 62.2 fL. It also gave a Mono [8] of 4.8%, a Neu [8] of 12% and a Plat [8] of 114.3 x10_4/uL. It also gave an RBC [8] of 623.8 x10_4/ul, a Ret [8] of 4.8% and a WBC [8] of 91.7 x10_2/uL. For the same molecule, the KIDNEY_L [9] was 1 g, the KIDNEY_R [9] was 1 g and the LIVER [8] was 13.9 g. For the same molecule, the ALP [8] was 2718.6 IU/L, the ALT [8] was 40.8 IU/L and the AST [8] was 63 IU/L. It also gave a BUN [8] of 9.4 mg/dL, a CRE [8] of 0.2 mg/dL and a Ca [8] of 10.3 mg/dL. For the same molecule, the Cl [8] was 107.8 meq/L, the DBIL [8] was 0.044 mg/dL and the IP [8] was 7.8 mg/dL. For the same molecule, the K [8] was 4.3 meq/L, the LDH [8] was 76.8 IU/L and the PL [8] was 65.8 mg/dL. It also gave an RALB [8] of 2.5 g/dL, a TBIL [8] of 0.082 mg/dL and a TC [8] of 23.2 mg/dL. The TG [8] was 30.2 mg/dL, the TP [8] was 5.3 g/dL and the gamma-GTP [8] was 1 IU/L. For the same molecule, the TERMINAL_BW [10] was 202.6 g, the TERMINAL_BW [11] was 211.1 g and the APTT [10] was 20.6 s. The Bas [10] was 0%, the Eos [10] was 1% and the Fbg [10] was 254 mg/dL. The Hb [10] was 13.9 g/dL, the Ht [10] was 39% and the Lym [10] was 78.2%. It also gave an MCH [10] of 20.6 pg, an MCHC [10] of 35.7% and an MCV [10] of 57.8 fL. For the same molecule, the Mono [10] was 2.6%, the PT [10] was 14 s and the Plat [10] was 122.3 x10_4/uL. For the same molecule, the RBC [10] was 675.2 x10_4/ul, the Ret [10] was 0.9% and the WBC [10] was 71.4 x10_2/uL. For the same molecule, the APTT [11] was 24.9 s, the Bas [11] was 0% and the Eos [11] was 0.6%. For the same molecule, the Fbg [11] was 258.6 mg/dL, the Hb [11] was 12.4 g/dL and the Ht [11] was 33.9%. For the same molecule, the Lym [11] was 78.6%, the MCH [11] was 19 pg and the MCHC [11] was 36.6%. For the same molecule, the MCV [11] was 51.7 fL, the Mono [11] was 2% and the Neu [11] was 18.2%. The Plat [11] was 120.4 x10_4/uL, the RBC [11] was 656.4 x10_4/ul and the Ret [11] was 1.9%. It also gave a WBC [11] of 61.3 x10_2/uL, a KIDNEY_L [12] of 1 g and a KIDNEY_R [12] of 1 g. It also gave a KIDNEY_L [13] of 1 g, a KIDNEY_R [13] of 1 g and an LIVER [10] of 14.2 g. It also gave an LIVER [11] of 15.1 g, an ALP [10] of 2093.8 IU/L and an AST [10] of 58.4 IU/L. It also gave a BUN [10] of 15.4 mg/dL, a CRE [10] of 0.2 mg/dL and a Cl [10] of 104.6 meq/L. The DBIL [10] was 0.074 mg/dL, the IP [10] was 6.4 mg/dL and the LDH [10] was 125.2 IU/L. The Na [10] was 144.8 meq/L, the PL [10] was 89.8 mg/dL and the RALB [10] was 3.1 g/dL. The TBIL [10] was 0.1 mg/dL, the TC [10] was 28.4 mg/dL and the TG [10] was 30.4 mg/dL. It also gave a TP [10] of 7 g/dL, a gamma-GTP [10] of 12.2 IU/L and an ALP [11] of 1817.4 IU/L. It also gave an ALT [11] of 61.6 IU/L, a BUN [11] of 16.4 mg/dL and a CRE [11] of 0.2 mg/dL. It also gave a Cl [11] of 104.6 meq/L, a DBIL [11] of 0.1 mg/dL and an IP [11] of 5.8 mg/dL. The LDH [11] was 94.4 IU/L, the Na [11] was 145 meq/L and the PL [11] was 118.6 mg/dL. It also gave an RALB [11] of 3.3 g/dL, a TBIL [11] of 0.3 mg/dL and a TC [11] of 40 mg/dL. The TG [11] was 60.2 mg/dL, the TP [11] was 7.3 g/dL and the gamma-GTP [11] was 19 IU/L.
